Patent US11040107B2, “Dosing regimens and related compositions and methods” (Apellis Pharmaceuticals, Inc., priority 2017, dated 2021)
Values belong to the molecule of their own block, whether it stands above or below them.

Assays:
[1] = system: RBCs from a patient with PNH; test: Modified Ham's test with flow cytometry for CD59 and C3d; assay type: cell-based, human
Protocol: A modified Ham's test was performed to assess the ability of compstatin analogs to protect PNH RBCs from complement-mediated lysis. […] Exposure to heat inactivated human serum was used as a control representing no significant complement-mediated lysis as complement is inactivated by heat. Exposure to acidified human serum and magnesium (Mg^2+) in the absence of complement inhibitors (pane labeled Mg^2+) was used as a control representing maximum lysis.
Following incubation, cells were stained with antibodies to CD59 and C3d. CD59 level permitted the classification of the PNH RBCs as Type I, Type II, or Type III. Staining for C3d, a product of C3 activation and cleavage was used as a marker of C3 and C3 activation product deposition (loading). Flow cytometric analysis was performed to assess CD59 and C3d on RBC surfaces and to quantify the percentages of Type I, Type II, and Type III cells present in various samples.

[2] = Phase 1 single and multiple ascending dose trial of inhaled CA28; assay type: in vivo, human; details: for adverse event: one subject
Protocol: In the single ascending dose part of the trial, 16 subjects were enrolled in four cohorts of four subjects each.
Four subjects were enrolled in the first cohort of the multiple ascending dose part of the trial. These subjects were to receive 14 consecutive days of treatment with a 60 mg/day dose of the drug. […] The trial was paused and subsequently resumed, with subjects receiving 30 mg/day. […] The trial was then terminated.

[3] = system: inflammatory cytokines in the lungs; test: Ascaris suum challenge model; assay type: in vivo, cynomolgus monkeys; details: nebulized 20 mg/day or 15 mg/kg/d for 14 days; during treatment and 28 days after cessation
[4] = biological target: T1, complement component C3 (human) (human, UniProt P01024 23-1663); test: cell-based or functional assay
[5] = biological target: T1, complement component C3 (human); test: cell-based or functional assay; remark: listed apart in the source
[6] = biological target: T1, complement component C3 (human); test: cell-based or functional assay; remark: listed apart in the source
[7] = biological target: T1, complement component C3 (human); test: cell-based or functional assay; remark: listed apart in the source
[8] = biological target: T1, complement component C3 (human); test: cell-based or functional assay; remark: listed apart in the source

Molecule: CC[C@H](C)[C@H](NC(C)=O)C(=O)N[C@H]1CSSC[C@@H](C(=O)N[C@H](C(N)=O)[C@@H](C)O)NC(=O)[C@H](CCCNC(=N)N)NC(=O)[C@H](Cc2cnc[nH]2)NC(=O)[C@H](C)NC(=O)CNC(=O)[C@H](Cc2c[nH]c3ccccc23)NC(=O)[C@H](CC(=O)O)NC(=O)[C@H](CCC(N)=O)NC(=O)[C@H](Cc2cn(C)c3ccccc23)NC(=O)[C@H](C(C)C)NC1=O [CA28]
- protection from complement-mediated lysis ([1]; 100 ug/ml or more): complete protection from complement-mediated lysis
- % C3 (Type I) ([1]; 1 micrograms/ml): 1.7%
- % C3 (Type III) ([1]; 1 micrograms/ml): 1.2%
- % C3 (Type III) ([1]; 4 micrograms/ml): 0.83%
- % C3 (Type III) ([1]; 8 micrograms/ml): 0.7%
- Type II % ([1]; 8 micrograms/ml): 66%
- % C3 (Type III) ([1]; 15 micrograms/ml): 0.98%
- Type I % ([1]; 15 micrograms/ml): 15%
- % C3 (Type II) ([1]; 25 micrograms/ml): 9.3%
- % C3 (Type III) ([1]; 25 micrograms/ml): 0.75%
- Type I % ([1]; 25 micrograms/ml): 14.96%
- % C3 (Type I) ([1]; 100 micrograms/ml): 0.08%
- % C3 (Type II) ([1]; 100 micrograms/ml): 0.92%
- % C3 (Type III) ([1]; 100 micrograms/ml): 0.1%
- Type III % ([1]; 100 micrograms/ml): 37.96%
- C3 loading on PNH red cells ([1]; 100 micrograms/ml compound or higher): virtually no C3 loading
- % C3 (Type I) ([1]; 500 micrograms/ml): 0.14%
- % C3 (Type II) ([1]; 500 micrograms/ml): 0.63%
- % C3 (Type III) ([1]; 500 micrograms/ml): 0.09%
- adverse event ([2]; 30 mg/day inhaled, after 10 days): signs and symptoms consistent with a potential bacterial infection
- adverse event ([2]; 60 mg/day inhaled, after nine days): signs and symptoms consistent with a potential bacterial infection
- safety and tolerability ([2]; single inhaled dose 20, 60, 150 or 350 mg): well tolerated
- levels of inflammatory cytokines in broncheoalveolar lavage fluid after allergen challenge [3]: had a pharmacological effect

B4: (CA28-AEEAc)8-PEG40k (peptide)
peptide: ICVWQDWGAHRCTK
modifications: N-terminal acetyl; 1-methyl-tryptophan at position 4; disulfide bond Cys2-Cys12; AEEAc spacer between Thr13 and Lys; Lys side chain coupled to one arm of an eight-arm 40 kD PEG (NOF SUNBRIGHT HGEO-400GS); C-terminal amide
- IC50 on a molar basis of the compound, classical complement inhibition assay [6]: ~260 nM
- IC50, classical complement inhibition assay, as a function of CA28 moiety concentration [5]: 1930 nM

B6: CA28-2GS-BF (peptide)
peptide: ICVWQDWGAHRCTK
modifications: not fully specified; N-terminal acetyl; 1-methyl-tryptophan at position 4; disulfide bond Cys2-Cys12; AEEAc spacer between Thr13 and Lys; Lys side chain coupled to one end of a bifunctional linear 40 kD PEG of the GS type (glutaryl, amide plus ester linkage); C-terminal amide
- Q1 (Type III cells with C3d deposition) % Parent, modified Ham's test, at 50 ug/ml [7]: 0.01%
- Q2 (Type I and II cells with C3d deposition) % Parent, modified Ham's test, at 50 ug/ml [7]: 0.01%
- Q3 (Type III cells without significant C3d deposition) % Parent, modified Ham's test, at 50 ug/ml [7]: 61.5%
- Q4 (Type I and II cells without significant C3d deposition) % Parent, modified Ham's test, at 50 ug/ml [7]: 38.5%

B7: CA28-AEEAc-Lys(mPEG40K-carbonyl) (peptide)
peptide: ICVWQDWGAHRCTK
modifications: N-terminal acetyl; 1-methyl-tryptophan at position 4; disulfide bond Cys2-Cys12; AEEAc spacer between Thr13 and Lys; linear monomethoxy 40 kD PEG (NOF SUNBRIGHT ME-400TS, carbonyl linkage) on the Lys side chain; C-terminal amide
- IC50 (read off the curve): % inhibition of classical pathway complement activation (C3b deposition ELISA, human plasma) [4]: ~700 nM

B8: CA28-2TS-BF (peptide)
peptide: ICVWQDWGAHRCTK
modifications: not fully specified; N-terminal acetyl; 1-methyl-tryptophan at position 4; disulfide bond Cys2-Cys12; AEEAc spacer between Thr13 and Lys; Lys side chain coupled by a carbamate to one end of a bifunctional linear 40 kD PEG of the TS type; C-terminal amide
- IC50 (read off the curve): % inhibition of alternative pathway complement activation (LPS-coated plate, C3b deposition ELISA, human plasma) [B] [8]: ~400 nM

Results, then the molecule that gave them:

- IC50 (read off the curve): % inhibition of classical pathway complement activation (C3b deposition ELISA, human plasma) [4]: ~700 nM
B1: CA28-AEEAc-Lys(mPEG40K-succinyl) (peptide)
peptide: ICVWQDWGAHRCTK
modifications: N-terminal acetyl; 1-methyl-tryptophan at position 4; disulfide bond Cys2-Cys12; AEEAc spacer between Thr13 and Lys; linear monomethoxy 40 kD PEG (NOF SUNBRIGHT ME-400CS, succinyl linkage) on the Lys side chain; C-terminal amide

- IC50, classical complement inhibition assay (C3b deposition ELISA, human plasma) [5]: 1260 nM
B2: CA28-AEEAc-Lys-(PEG30k) (peptide)
peptide: ICVWQDWGAHRCTK
modifications: not fully specified; N-terminal acetyl; 1-methyl-tryptophan at position 4; disulfide bond Cys2-Cys12; AEEAc (8-amino-3,6-dioxaoctanoyl) spacer between Thr13 and Lys; linear monofunctional 30 kD PEG (NOF SUNBRIGHT ME-300GS) on the Lys side chain; C-terminal amide

- IC50 (read off the curve): % inhibition of classical pathway complement activation (C3b deposition ELISA, human plasma) [4]: ~700 nM
- IC50, classical complement inhibition assay (C3b deposition ELISA, human plasma) [5]: 1290 nM
B3: CA28-AEEAc-Lys-(PEG40k) (peptide)
peptide: ICVWQDWGAHRCTK
modifications: N-terminal acetyl; 1-methyl-tryptophan at position 4; disulfide bond Cys2-Cys12; AEEAc spacer between Thr13 and Lys; linear monomethoxy 40 kD PEG (NOF SUNBRIGHT ME-400GS, glutaryl linkage) on the Lys side chain; C-terminal amide

- IC50 (read off the curve): % inhibition of classical pathway complement activation (C3b deposition ELISA, human plasma) [4]: ~700 nM
B5: CA28-AEEAc-Lys(mPEG40K-hexanoyl) (peptide)
peptide: ICVWQDWGAHRCTK
modifications: N-terminal acetyl; 1-methyl-tryptophan at position 4; disulfide bond Cys2-Cys12; AEEAc spacer between Thr13 and Lys; linear monomethoxy 40 kD PEG (NOF SUNBRIGHT ME-400HS, hexanoyl linkage) on the Lys side chain; C-terminal amide
